The results in this text go back to publication PMC4237513 (European Journal of Medicinal Chemistry, 2014).

Each structure is given as a SMILES string.

In general, EC50 refers to the concentration that produces a half-maximal response.

In data set [1] the test system is dengue virus (DENV). Briefly: microbe, parasite or virus in culture. The following applies: for EC50: Dengue virus, Vero B, 168 h, read-out: Dengue EC50. It is filed as cell-based.
In data set [2] the test system is yellow fever virus (YFV). In words: microbe, parasite or virus in culture. It is filed as cell-based. As to conditions: for EC50: Yellow fever virus, Vero B, 168 h, read-out: Yellow fever EC50.
A short description of data set [3]: in vitro. As to conditions: chlorocebus sabaeus.

Regarding `O=C(NCc1ccccc1-c1ccncc1)c1nccnc1C(=O)Nc1ccc(F)cc1` [20f, N^2-(4-fluorophenyl)-N^3-(2-(pyridin-4-yl)benzyl) pyrazine-2,3-dicarboxamide], in data set [1], the “fold decrease in activity against DENV” value amounted to 20 fold and the EC50 came out at 40.7 µM. Besides, in data set [2], the “fold decrease in activity against YFV” value is 6 fold and the EC50 came out at 21.3 µM. This compound showed a CC50 in data set [3] (Dengue CC50) of over 118 µM. The compound also yielded a CC50 in data set [3] (Yellow fever CC50) of over 127 µM.
For the compound `Cc1ccc(NC(=O)c2nccnc2C(=O)Nc2ccc(F)cc2)c(-c2ccncc2)c1` [20g, N^2-(4-fluorophenyl)-N^3-(4-methyl-2-(pyridin-4-yl)phenyl)pyrazine-2,3-dicarbox amide], the figures for the EC50 in data set [1] and in data set [2] were over 117 µM and 48.4 µM, respectively. Moreover, the CC50 in data set [3] (Dengue CC50) is over 117 µM; in data set [3] (Yellow fever CC50), over 125 µM.
For the compound `Cc1ccc(NC(=O)c2nccnc2C(=O)NCc2ccc(-c3ccncc3)cc2)cc1` [20h, N^2-(4-(pyridin-4-yl)benzyl)-N^3-(p-tolyl) pyrazine-2,3-dicarboxamide], the EC50 amounted to 16.6 µM in data set [1] and 36.8 µM in data set [2]. Moreover, the CC50 at 168 h in data set [3] (Dengue CC50) stood at 74.7 µM. The CC50 in data set [3] (Yellow fever CC50) is over 110 µM.
As for `Cc1ccc(NC(=O)c2nccnc2C(=O)Nc2ccc(C)cc2-c2cccnc2)cc1` [20i, N^2-(4-methyl-2-(pyridin-3-yl)phenyl)-N^3-(p-tolyl) pyrazine-2,3-dicarboxamide], the EC50 in data set [1] turned out to be 10.6 µM; in data set [2] it was 18.4 µM. Also, the CC50 at 168 h is 47.5 µM in data set [3] (Dengue CC50) and 75.5 µM in data set [3] (Yellow fever CC50).
Take `Cc1ccc(NC(=O)c2nccnc2C(=O)NCc2ccc(-c3cccnc3)cc2)cc1` [20j, N^2-(4-(pyridin-3-yl)benzyl)-N^3-(p-tolyl) pyrazine-2,3-dicarboxamide]: the values for the EC50 in data set [1] and in data set [2] were 6.75 µM and 73.1 µM, respectively. In addition, the values for the CC50 in data set [3] (Dengue CC50) and in data set [3] (Yellow fever CC50) were over 116 µM and over 124 µM, respectively.
Regarding `Cc1ccc(NC(=O)c2nccnc2C(=O)Nc2ccccc2-c2ccncc2)cc1` [20k, N^2-(2-(pyridin-4-yl)phenyl)-N^3-(p-tolyl) pyrazine-2,3-dicarboxamide], the EC50 in data set [1] stood at 4.71 µM; in data set [2], 12.5 µM. Further, the results for the CC50 in data set [3] (Dengue CC50) and in data set [3] (Yellow fever CC50) were over 122 µM and over 125 µM, respectively.
For `Cc1ccc(NC(=O)c2nccnc2C(=O)Nc2ccccc2-c2cccnc2)cc1` [20l, N^2-(2-(pyridin-3-yl)phenyl)-N^3-(p-tolyl) pyrazine-2,3-dicarboxamide], the EC50 is 14.6 µM in data set [1] and over 122 µM in data set [2]. In addition, the CC50 in data set [3] (Dengue CC50) was over 128 µM; in data set [3] (Yellow fever CC50), over 122 µM.
`Cc1ccc(NC(=O)c2nccnc2C(=O)Nc2ccc(C)cc2-c2ccncc2)cc1` [20n, N^2-(4-methyl-2-(pyridin-4-yl)phenyl)-N^3-(p-tolyl) pyrazine-2,3-dicarboxamide]: the EC50 in data set [1] amounted to 11.9 µM; in data set [2], 30.9 µM. Also, the figures for the CC50 in data set [3] (Dengue CC50) and in data set [3] (Yellow fever CC50) were over 119 µM and over 118 µM, respectively.
